Experimental data as given in patent US7148194B2, “Method to increase fibronectin” (Kimberly-Clark Worldwide, Inc., priority 2002, dated 2006).
Where “and” joins values, the source holds several entries; their conditions need not be identical. Equal values may be shown once.

What was measured:
C57BL6/KsJ db/db mice = experiment: wound healing in db/db diabetic mice; type: in vivo
From the text: The mice were obtained from The Jackson Laboratories and were aged 3–7 months before the onset of the wounding protocol. All mice were anesthetized prior to wounding. Wounds were created in C57BL6/KsJ db/db mice with a 4 mm biopsy punch. Two wounds were introduced onto the upper back of each animal by pulling the skin away from underlying structures and pushing the punch through the isolated skin. Typically, wounds were created to an average depth of 1.7 mm, with a range of 1.3 to 2.2 mm. No muscle involvement occurred during the course of wounding.
Each day the wounds were digitally photographed and wound areas were determined by computer integration of the photographs. All wound treatments and the subsequent data analyses were performed in a blind manner (see e.g., Brown et al., 1994). Wound area at the time of wounding (day 0) is arbitrarily set to a relative value of 1 for all wounds; such that subsequent wound areas are converted to relative wound areas by dividing the wound area at day n by the wound area at day zero.

[1] = system: normal human dermal fibroblasts; experiment: fibroblast proliferation, Cell Titer 96, OD 490 nm; type: cell-based; set-up: fibroblast cell density versus control: dose or concentration left out as unconfirmed; conditions: 28 hours
Description: A human skin fibroblast cell line (Clonetics, Walkersville, Md., normal human dermal fibroblasts, neonatal, catalog number CC-2509) was tested to ascertain whether exposure to a peptide would stimulate cellular proliferation. […] Plates were incubated for 24 hours at 37° C. in a humidified 5% CO2 atmosphere. After incubation, the medium was aspirated and the wells were rinsed twice with 100 μl of serum-free DMEM. […] In addition, 100 μl of vehicle (serum-free DMEM) was added to 10 wells as control. All wells were incubated for 28 hours at 37° C. in a humidified, 5% CO2 atmosphere. After incubation, 20 μl of Cell Titer 96 Aqueous One Solution was added to all wells. The plates were swirled gently and placed back in the incubator for 45 minutes and spectrophotometric absorbance was read at 490 nm. Results were analyzed statistically using one-way ANOVA.

[2] = system: normal human dermal fibroblasts (NHDF); experiment: NHDF migration assay, 48-well chemotaxis chamber; type: cell-based
Description: Normal, human dermal fibroblasts (NHDF) were obtained from Biowhittaker, (Walkersville, Md.) and propagated in T75 flasks in FBM media (500 mL, Biowhittaker) containing insulin, hFGF-b, GA-1000, and fetal bovine serum (10 mL) for up to 12 passages. For the migration assay, NHDF were washed once with 10 mL of Hank's buffered saline solution (HBSS). Three milliliters of trypsin (0.25%) in EDTA were added to the T75 flask for no more than five minutes to remove NHDF from the flask. NHDF in trypsin solution were added to 7 mL of FBM with no supplements added. NHDF were centrifuged for 5 minutes, and the supernatant was removed. NHDF were resuspended in 10 mL of FBM for counting. NHDF were centrifuged for another 5 minutes, and the supernatant was removed. NHDF were resuspended at 1×10^6 cells per mL in FBM without supplements. It was important to use FBM media only in migration assays because the complete media contains fibroblast growth factor and serum, both of which will trigger migration of fibroblasts.
Peptides were synthesized and purified by the Microchemical Facility at Emory University or by SigmaGenesis. All peptides were analyzed by mass spectrometry after HPLC to assess purity. Approximately 0.5–2.0 milligrams of peptide were used to make fresh stock solutions (5 mg/mL in PBS) for each migration assay. The peptide stock solutions in PBS were used to make more dilute solutions (1 mg/mL, 100 μg/mL, 10 μg/mL, 1 μg/mL, 100 ng/mL, 10 ng/mL) in FBM (without supplements) for the migration assays.
Polyvinylpyrrolidone-free polycarbonate membranes with […] pores (Neuroprobe, Inc., Gaithersburg, Md.) were washed with 90% ethanol for 15 minutes and rinsed four times with deionized water. Membranes were then placed into a glass dish containing an aqueous solution of 5 μg/mL gelatin. The glass dish was placed in to a water bath at about 90° C. for one hour. Membranes were removed from the gelatin solution and were allowed to dry for one hour in the 37° C. incubator.
A 48-well chemotaxis chamber (Neuroprobe, Inc., Gaithersburg, Md.) (see FIG. 20) was used for the migration assays. Twenty-eight μL of each test solution were added to the bottom wells of the chamber in quadruplicate. A gelatin-treated membrane was placed carefully on top of the bottom wells. The gasket and top part of chamber were then placed carefully on top of the membrane. The apparatus was tightened using six thumbscrews. A solution of NHDF containing an estimated cell density (2×10^5 cells per mL) was made by adding 320 μL of the 1×10^6 cells per mL solution to 1.28 mL of FBM (no supplements). Fifty microliters of the 2×10^5 cells per mL NHDF solution were added to the top part of each well in the chamber. The chamber was placed in the incubator at 37° C./5% CO2 for three hours. The chamber was removed, the thumbscrews were removed, and the chamber was turned upside down on a paper towel. […] The membrane was carefully removed. […] The membrane was fixed with methanol and stained using the Diff-Quik Staining Solutions I and II. The nuclei of NHDF are stained purple. The membrane was mounted on a glass slide using cedarwood immersion oil and a cover slip. […] The average number of migrated NHDF in the negative control was subtracted from the experimental (peptide) data and positive control data.

[3] = system: normal human epidermal keratinocytes; experiment: keratinocyte proliferation, Cell Titer 96, OD 490 nm; type: cell-based; conditions: 48 hours
Description: The proliferative response of these human skin keratinocytes to the 19mer peptide was measured in a 96-well assay system using keratinocyte basal medium (KBM, Clonetics, catalog number CC-3103) as a control. […] The plates were incubated for 24 hours at 37° C. in a humidified 5% CO2 atmosphere. […] In addition, 100 μl of vehicle KBM was added to 10 wells as control. The plate was incubated for 48 hours at 37° C. in a humidified, 5% CO2 atmosphere. After incubation, 20 μl of Cell Titer 96 Aqueous One Solution was added to all wells. The plate was swirled gently and placed back in the incubator for 3 hours. The spectrophotometric absorbance of each well was read at 490 nm. Results were analyzed statistically using one-way ANOVA.

[4] = single dose 5 μL of 20 μg/mL at day zero

CC(C)[C@H](NC(=O)[C@H](CC(=O)O)NC(=O)[C@@H]1CCCN1C(=O)[C@H](CC(N)=O)NC(=O)CNC(=O)[C@H](CS)NC(=O)[C@H](CCCNC(=N)N)NC(=O)[C@@H]1CCCN1)C(=O)N[C@@H](C)C(=O)N[C@@H](CC(N)=O)C(=O)N[C@@H](Cc1ccc(O)cc1)C(=O)N[C@@H](CC(N)=O)C(=O)N[C@@H](Cc1ccccc1)C(=O)N[C@@H](Cc1ccccc1)C(=O)N1CCC[C@H]1C(=O)N[C@@H](CCCNC(=N)N)C(=O)N[C@@H](CCCCN)C(=O)N1CCC[C@H]1C(=O)N[C@@H](CCCCN)C(=O)O [Peptide 19-mer]
wound inflammation (C57BL6/KsJ db/db mice; day one post wounding): reduction in wound inflammation
day on which wound contraction process began (C57BL6/KsJ db/db mice; [4]): 5 days
time to wound closure post wounding (C57BL6/KsJ db/db mice; [4]): 9 days
fibroblast cell growth versus control ([1]; 1×10^−4 M, P<0.001): even greater cell growth
fibroblast cell proliferation versus control ([1]; 1×10^−6 M, P<0.05): a small amount of cell proliferation
fibroblast cell density versus control ([1]; (19mer5), P<0.01): significantly greater cell density
NHDF migration, percent of the plasma fibronectin positive control ([2]; 100 μg/mL peptide): 46±3% and 46%±3%
NHDF migration, percent of the plasma fibronectin positive control ([2]; 1000 μg/mL peptide): 55±3% and 55%±3%
NHDF migration, percent of the plasma fibronectin positive control ([2]; concentrations below 100 μg/mL): about 20%
keratinocyte cell growth versus control ([3]; 1×10^−4 M, P<0.001): even greater cell growth
keratinocyte cell density versus control ([3]; 1×10^−5 M, P<0.01): significantly greater cell density
keratinocyte cell proliferation versus control ([3]; 1×10^−6 M, P>0.05): only a small amount of cell proliferation
